Test results as given in US5985937A, “Use of 2,4-distributed phenol derivatives as 5-lipoxygenase inhibitors” (priority 1994, dated 1999).

Key:
bursitis = experiment: treatment of horses with bursitis; format: in vivo, horse; conditions: seven young horses, 15 mg/day intraarticular infiltration
canine arthritis = experiment: clinical trial on canine arthritis; format: in vivo, dog; set-up: key: +++: very good response, total recovery; ++: good response, functionability recovery; +: moderate response, improvement; -: negative response or no apparent improvement; conditions: 2 mg/kg day orally, 15 days
Method: After the diagnosis, each animal was treated with Bobel capsules during 45 days, with a follow up every 15 days. Blood, synovial liquid and urine samples were taken at the beginning and at the end of the treatment in order to perform the following tests: Synovial liquid analysis (cytology, cytokines 1,6,8 and TNF); LTB4; LTC4; PGE2; hematic count and leukocyte content; standard serum biochemistry; urine sediment; Rose-Wealer test; and radiology control. The methodology for clinical validation involved applying evaluating uniform parameters and classifying the results according to the following notations: (+++)=very good response, total recovery; (++)=good response, functionability recovery; (+)=moderate response, improvement; (-)=negative response or no apparent improvement.
After the diagnosis each animal was treated with capsules of Bobel-24 during 15 days. Blood, synovial liquid and urine samples were taken at the beginning and at the end of the treatment in order to perform the same tests as in example 13, using the same notation for the clinical evolution.

[1] = test system: chronic intestinal pathology, chronic lymphoplasmocitary enteritis and hemorrhagic cholitis; experiment: treatment of dogs with gastrointestinal diseases; format: in vivo, dog; conditions: ten dogs, 1-2 mg/kg.day
Method: A total of ten dogs diagnosed chronic intestinal pathology, chronic lymphoplasmocitary enteritis (diagnosed through a biopsy and more than a year of evolution) and hemorrhagic cholitis, were treated with doses of 1-2 mg/kg.day of Bobel-24.

## Oc1c(I)cc(I)cc1I [Bobel-24, 2,4,6-triiodophenol]
bursitis
  reduction in inflammation: a reduction in the inflammation was obtained
Canine arthritis; German shepherd 2 years
  Evolution, knee instability: ++
Canine arthritis; Mongrel 1 year
  Evolution, osteochondritis: +++
Canine arthritis; b340 Mongrel 8, b342 German shepherd 6, b343 Rottwailer 1, b347 Mongrel 7 years
  Evolution, arthritis: +++
[1]
  response: responded very positively in a short time (1-2 weeks)
